Results as given in the NIST ThermoML archive (doi:10.1021/je300692s).
± gives the expanded uncertainty stated by the source.

Assay: activity coefficient (dimensionless); of the first substance listed, at infinite dilution; xn = mol fraction of the nth substance listed
Conditions: 101 kPa, Liquid, Chromatography, x1 = 0

Compound	activity coefficient (322.9 K)	activity coefficient (333 K)	activity coefficient (343.1 K)	activity coefficient (323 K)	activity coefficient (322.6 K)	activity coefficient (332.5 K)	activity coefficient (342.8 K)
C1CCCCCC1 [cycloheptane] + CCCCCC[N+]1(C)CCCC1.O=S(=O)([N-]S(=O)(=O)C(F)(F)F)C(F)(F)F	14 ± 1.5	19 ± 2	25.1 ± 2.6				
Cc1ccc(C)cc1 [1,4-dimethylbenzene] + CCCCCCCC[N+]1(C)CCCC1.O=S(=O)([N-]S(=O)(=O)C(F)(F)F)C(F)(F)F		0.99 ± 0.1	1.05 ± 0.11	1.01 ± 0.1			
CC#N [acetonitrile] + CCCCCCCC[N+]1(C)CCCC1.O=S(=O)([N-]S(=O)(=O)C(F)(F)F)C(F)(F)F		0.39 ± 0.05	0.37 ± 0.04	0.43 ± 0.05			
C1COCCO1 [1,4-dioxane] + CCCCCCCC[N+]1(C)CCCC1.O=S(=O)([N-]S(=O)(=O)C(F)(F)F)C(F)(F)F		0.6 ± 0.06	0.31 ± 0.04	0.32 ± 0.04			
C1CCCCC1 [cyclohexane] + CCCCCCCCCC[N+]1(C)CCCC1.O=S(=O)([N-]S(=O)(=O)C(F)(F)F)C(F)(F)F					2.81 ± 0.3	2.71 ± 0.28	2.62 ± 0.28
c1ccncc1 [pyridine] + CCCCCCCCCC[N+]1(C)CCCC1.O=S(=O)([N-]S(=O)(=O)C(F)(F)F)C(F)(F)F					0.47 ± 0.05	0.47 ± 0.05	0.47 ± 0.05
CC(C)CO [2-methyl-1-propanol] + CCCCCCCC[N+]1(C)CCCC1.O=S(=O)([N-]S(=O)(=O)C(F)(F)F)C(F)(F)F		1.44 ± 0.15	1.22 ± 0.13	1.59 ± 0.17			
CCCCCCC [heptane] + CCCCCCCCCC[N+]1(C)CCCC1.O=S(=O)([N-]S(=O)(=O)C(F)(F)F)C(F)(F)F					4.91 ± 0.52	4.75 ± 0.5	4.62 ± 0.49
Cc1cccc(C)c1 [1,3-dimethylbenzene] + CCCCCCCCCC[N+]1(C)CCCC1.O=S(=O)([N-]S(=O)(=O)C(F)(F)F)C(F)(F)F					0.99 ± 0.1	1 ± 0.1	1.03 ± 0.1
CCC(C)CC [3-methylpentane] + CCCCCC[N+]1(C)CCCC1.O=S(=O)([N-]S(=O)(=O)C(F)(F)F)C(F)(F)F	6.52 ± 0.69	6.46 ± 0.68	6.37 ± 0.67				
CCCCCCCCCC [decane] + CCCCCCCCCC[N+]1(C)CCCC1.O=S(=O)([N-]S(=O)(=O)C(F)(F)F)C(F)(F)F					9.42 ± 0.99	9.05 ± 0.95	8.7 ± 0.91
CCO [ethanol] + CCCCCCCC[N+]1(C)CCCC1.O=S(=O)([N-]S(=O)(=O)C(F)(F)F)C(F)(F)F		1.26 ± 0.13	0.98 ± 0.1	1.33 ± 0.14			
c1ccccc1 [benzene] + CCCCCCCC[N+]1(C)CCCC1.O=S(=O)([N-]S(=O)(=O)C(F)(F)F)C(F)(F)F		0.62 ± 0.07	0.61 ± 0.07	0.6 ± 0.06			
C#CCCCC [1-hexyne] + CCCCCCCCCC[N+]1(C)CCCC1.O=S(=O)([N-]S(=O)(=O)C(F)(F)F)C(F)(F)F					1.5 ± 0.16	1.48 ± 0.15	1.47 ± 0.15
CC1CCCCC1 [methylcyclohexane] + CCCCCC[N+]1(C)CCCC1.O=S(=O)([N-]S(=O)(=O)C(F)(F)F)C(F)(F)F	6.57 ± 0.69	6.07 ± 0.64	6.03 ± 0.63				
CCC(=O)CC [pentan-3-one] + CCCCCCCC[N+]1(C)CCCC1.O=S(=O)([N-]S(=O)(=O)C(F)(F)F)C(F)(F)F		0.47 ± 0.05	0.44 ± 0.05	0.45 ± 0.05			
C[N+](=O)[O-] [nitromethane] + CCCCCCCCCC[N+]1(C)CCCC1.O=S(=O)([N-]S(=O)(=O)C(F)(F)F)C(F)(F)F					0.63 ± 0.07	0.62 ± 0.07	0.6 ± 0.06
CCCO [propan-1-ol] + CCCCCC[N+]1(C)CCCC1.O=S(=O)([N-]S(=O)(=O)C(F)(F)F)C(F)(F)F	1.72 ± 0.18	1.64 ± 0.17	1.49 ± 0.15				
c1ccncc1 [pyridine] + CCCCCC[N+]1(C)CCCC1.O=S(=O)([N-]S(=O)(=O)C(F)(F)F)C(F)(F)F	0.52 ± 0.06	0.52 ± 0.06	0.53 ± 0.06				
ClC(Cl)(Cl)Cl [tetrachloromethane] + CCCCCC[N+]1(C)CCCC1.O=S(=O)([N-]S(=O)(=O)C(F)(F)F)C(F)(F)F	1.78 ± 0.19	1.85 ± 0.19	1.86 ± 0.19				
CCO [ethanol] + CCCCCC[N+]1(C)CCCC1.O=S(=O)([N-]S(=O)(=O)C(F)(F)F)C(F)(F)F	1.41 ± 0.15	1.4 ± 0.14	1.31 ± 0.13				
C1CCCCC1 [cyclohexane] + CCCCCC[N+]1(C)CCCC1.O=S(=O)([N-]S(=O)(=O)C(F)(F)F)C(F)(F)F	5.16 ± 0.54	4.64 ± 0.49	4.67 ± 0.49				
C1CCCCC1 [cyclohexane] + CCCCCCCC[N+]1(C)CCCC1.O=S(=O)([N-]S(=O)(=O)C(F)(F)F)C(F)(F)F		3.31 ± 0.35	3.06 ± 0.32	3.45 ± 0.36			

Compound	activity coefficient (322.9 K)	activity coefficient (333 K)	activity coefficient (343.1 K)	activity coefficient (323 K)	activity coefficient (322.6 K)	activity coefficient (332.5 K)	activity coefficient (342.8 K)
CC(C)OC(C)C [diisopropyl ether] + CCCCCC[N+]1(C)CCCC1.O=S(=O)([N-]S(=O)(=O)C(F)(F)F)C(F)(F)F	3.18 ± 0.33	3.56 ± 0.37	3.53 ± 0.37				
CC#N [acetonitrile] + CCCCCC[N+]1(C)CCCC1.O=S(=O)([N-]S(=O)(=O)C(F)(F)F)C(F)(F)F	0.46 ± 0.05	0.46 ± 0.05	0.48 ± 0.05				
CCC(C)=O [butanone] + CCCCCCCC[N+]1(C)CCCC1.O=S(=O)([N-]S(=O)(=O)C(F)(F)F)C(F)(F)F		0.34 ± 0.04	0.31 ± 0.04	0.36 ± 0.04			
C1CCCCCC1 [cycloheptane] + CCCCCCCC[N+]1(C)CCCC1.O=S(=O)([N-]S(=O)(=O)C(F)(F)F)C(F)(F)F		12.1 ± 1.3	15.4 ± 1.6	8.62 ± 0.91			
C1COCCO1 [1,4-dioxane] + CCCCCC[N+]1(C)CCCC1.O=S(=O)([N-]S(=O)(=O)C(F)(F)F)C(F)(F)F	0.58 ± 0.06	0.42 ± 0.05	0.44 ± 0.05				
CCC(C)CC [3-methylpentane] + CCCCCCCC[N+]1(C)CCCC1.O=S(=O)([N-]S(=O)(=O)C(F)(F)F)C(F)(F)F		4.52 ± 0.47	4.08 ± 0.43	4.61 ± 0.48			
CCCCCCCCC [nonane] + CCCCCCCC[N+]1(C)CCCC1.O=S(=O)([N-]S(=O)(=O)C(F)(F)F)C(F)(F)F		10.7 ± 0.64	9.14 ± 0.55	11.3 ± 0.67			
CCCCCCCCC [nonane] + CCCCCCCCCC[N+]1(C)CCCC1.O=S(=O)([N-]S(=O)(=O)C(F)(F)F)C(F)(F)F					8.32 ± 0.87	8.01 ± 0.84	7.65 ± 0.8
CCCCCCCCCCC [undecane] + CCCCCCCC[N+]1(C)CCCC1.O=S(=O)([N-]S(=O)(=O)C(F)(F)F)C(F)(F)F		15.6 ± 1.6	14.6 ± 1.5	16.8 ± 1.8			
CCC[N+](=O)[O-] [1-nitropropane] + CCCCCCCC[N+]1(C)CCCC1.O=S(=O)([N-]S(=O)(=O)C(F)(F)F)C(F)(F)F		0.52 ± 0.06	0.51 ± 0.06	0.55 ± 0.06			
ClCCl [dichloromethane] + CCCCCCCC[N+]1(C)CCCC1.O=S(=O)([N-]S(=O)(=O)C(F)(F)F)C(F)(F)F		0.27 ± 0.04	0.28 ± 0.04	0.26 ± 0.04			
CCCCCCC [heptane] + CCCCCCCC[N+]1(C)CCCC1.O=S(=O)([N-]S(=O)(=O)C(F)(F)F)C(F)(F)F		6.06 ± 0.64	5.13 ± 0.54	6.4 ± 0.67			
C#CCCCCC [1-heptyne] + CCCCCC[N+]1(C)CCCC1.O=S(=O)([N-]S(=O)(=O)C(F)(F)F)C(F)(F)F	2.24 ± 0.24	2.79 ± 0.29	2.78 ± 0.29				
CCCCCC [hexane] + CCCCCC[N+]1(C)CCCC1.O=S(=O)([N-]S(=O)(=O)C(F)(F)F)C(F)(F)F	7.74 ± 0.81	7.38 ± 0.78	7.11 ± 0.75				
Cc1ccccc1C [1,2-dimethylbenzene] + CCCCCCCC[N+]1(C)CCCC1.O=S(=O)([N-]S(=O)(=O)C(F)(F)F)C(F)(F)F		0.87 ± 0.09	0.97 ± 0.1	0.92 ± 0.09			
CCOCC [diethyl ether] + CCCCCC[N+]1(C)CCCC1.O=S(=O)([N-]S(=O)(=O)C(F)(F)F)C(F)(F)F	1.56 ± 0.16	1.76 ± 0.18	1.76 ± 0.18				
CC(C)O [propan-2-ol] + CCCCCC[N+]1(C)CCCC1.O=S(=O)([N-]S(=O)(=O)C(F)(F)F)C(F)(F)F		1.53 ± 0.16	1.4 ± 0.14				
C[N+](=O)[O-] [nitromethane] + CCCCCCCC[N+]1(C)CCCC1.O=S(=O)([N-]S(=O)(=O)C(F)(F)F)C(F)(F)F		0.51 ± 0.06	0.48 ± 0.05	0.54 ± 0.06			
CO [methanol] + CCCCCCCC[N+]1(C)CCCC1.O=S(=O)([N-]S(=O)(=O)C(F)(F)F)C(F)(F)F		1.09 ± 0.11	0.71 ± 0.07	0.97 ± 0.1			
CCCCCCCCCCC [undecane] + CCCCCC[N+]1(C)CCCC1.O=S(=O)([N-]S(=O)(=O)C(F)(F)F)C(F)(F)F	34.4 ± 3.6	31 ± 3.3	30.1 ± 3.2				
CCc1ccccc1 [ethylbenzene] + CCCCCC[N+]1(C)CCCC1.O=S(=O)([N-]S(=O)(=O)C(F)(F)F)C(F)(F)F	1.38 ± 0.14	1.43 ± 0.15	1.46 ± 0.15				
CCCO [propan-1-ol] + CCCCCCCC[N+]1(C)CCCC1.O=S(=O)([N-]S(=O)(=O)C(F)(F)F)C(F)(F)F		1.29 ± 0.13	1.14 ± 0.12	1.49 ± 0.15			
